Results on 27 compounds are retold here after patent US11899021B2, “Luciferase-based thermal shift assays” (Promega Corporation, priority 2015, dated 2024).

One data set addresses T1, HDAC1-Nluc (Homo sapiens, UniProt Q13547).
T1 construct: NanoLuc luciferase (Nluc); expressed in transfected cells; host or cells: HeLa
Briefly: Direct-luciferase-detection thermal shift assay, HDAC1-Nluc (Example 7). It is filed as binding. The conditions noted are these: HeLa cells then digitonin, 10 uL of 1 mM stock per well. Here is the method:
(§1) The cells were seeded into 96-well tall-chimney PCR plate (Fisherbrand) at a density of 2×10^4 cells/well in a 90 uL/well volume and treated with 10 uL of 10% DMSO (Sigma) or 10 uL of a 1 mM stock solution of test compound in 10% DMSO. […] The plates were placed into a thermal cycler (MW Research) where the samples were heated individually at different temperatures spanning a gradient of 42-66° C. across the plate for 3 minutes followed by cooling at 22° C. for 3 minutes. 100 uL/well was then transferred to a tissue culture plate (Corning), and luminescence was measured on a BMG Clariostar luminometer equipped with a 450 nm BP filter. Data was normalized by relating RLU signals to the RLU of the lowest temperature for the respective sample.

In the next data set the target is T2, CDK2-Nluc (Homo sapiens, UniProt P24941).
T2 construct: NanoLuc luciferase (Nluc); expressed in transfected cells; host or cells: HeLa
Briefly: Direct-luciferase-detection thermal shift assay, compound selectivity, CDK2-Nluc (Example 6). It is filed as binding. The conditions noted are these: HeLa cells then digitonin, 10 uL of 1 mM stock per well. As to the method:
as §1, with “HeLa cells were transfected separately with CDK2-Nluc or Nluc-ABL1 DNA at a 1:100 DNA ratio and incubated overnight. […] The cells” for “The cells”, “plates were then incubated for ½ hour in a humidified, 37° C./5% CO2 incubator prior to addition of 10 uL/well of a 0.5 mg/ml solution of digitonin (Sigma) and 10% DMSO (Sigma). The plates were placed into” for “plates were placed into”, “3 minutes. Furimazine Live Cell Substrate (Promega) was added to a final concentration of 1× in 20 uL/well volume. 100 uL/well” for “3 minutes. 100 uL/well”, “respective sample. Data was then fitted to obtain apparent melting temperature where the protein was precipitating (Tagg values) using the Boltzmann Sigmoidal equation with Graphpad Prism software.” for “respective sample.”

Another data set concerns the target T3, Nluc-ABL1 (Homo sapiens, UniProt P00519).
T3 construct: NanoLuc luciferase (Nluc); expressed in transfected cells; host or cells: HeLa
Briefly: Direct-luciferase-detection thermal shift assay, compound selectivity, Nluc-ABL1 (Example 6). The conditions noted are these: Nluc-ABL1, HeLa cells then digitonin, 10 uL of 1 mM stock per well. It counts as binding. Here is the method:
as §1, with “HeLa cells were transfected separately with CDK2-Nluc or Nluc-ABL1 DNA at a 1:100 DNA ratio and incubated overnight. […] The cells” for “The cells”, “plates were then incubated for ½ hour in a humidified, 37° C./5% CO2 incubator prior to addition of 10 uL/well of a 0.5 mg/ml solution of digitonin (Sigma) and 10% DMSO (Sigma). The plates were placed into” for “plates were placed into”, “3 minutes. Furimazine Live Cell Substrate (Promega) was added to a final concentration of 1× in 20 uL/well volume. 100 uL/well” for “3 minutes. 100 uL/well”, “respective sample. Data was then fitted to obtain apparent melting temperature where the protein was precipitating (Tagg values) using the Boltzmann Sigmoidal equation with Graphpad Prism software.” for “respective sample.”

The nature of data set [1]: Optical property of dyes in DMSO (Table 1). It counts as physicochemical. The following applies: for Optical Property (in DMSO) Excitation: unit assumed.

T1 sequence (Q13547 whole entry): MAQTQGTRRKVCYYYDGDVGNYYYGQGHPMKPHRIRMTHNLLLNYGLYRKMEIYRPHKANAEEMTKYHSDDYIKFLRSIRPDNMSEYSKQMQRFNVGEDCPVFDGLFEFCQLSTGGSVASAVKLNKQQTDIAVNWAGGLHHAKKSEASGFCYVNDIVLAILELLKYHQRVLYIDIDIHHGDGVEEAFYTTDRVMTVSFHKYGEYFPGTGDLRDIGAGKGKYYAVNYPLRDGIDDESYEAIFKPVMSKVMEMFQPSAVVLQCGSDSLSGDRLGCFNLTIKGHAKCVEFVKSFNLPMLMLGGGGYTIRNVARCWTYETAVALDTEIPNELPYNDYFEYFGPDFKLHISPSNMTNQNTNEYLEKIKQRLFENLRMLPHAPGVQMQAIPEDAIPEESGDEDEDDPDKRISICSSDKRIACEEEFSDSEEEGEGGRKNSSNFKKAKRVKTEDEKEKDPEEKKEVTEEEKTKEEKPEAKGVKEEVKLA
T3 sequence (P00519 whole entry): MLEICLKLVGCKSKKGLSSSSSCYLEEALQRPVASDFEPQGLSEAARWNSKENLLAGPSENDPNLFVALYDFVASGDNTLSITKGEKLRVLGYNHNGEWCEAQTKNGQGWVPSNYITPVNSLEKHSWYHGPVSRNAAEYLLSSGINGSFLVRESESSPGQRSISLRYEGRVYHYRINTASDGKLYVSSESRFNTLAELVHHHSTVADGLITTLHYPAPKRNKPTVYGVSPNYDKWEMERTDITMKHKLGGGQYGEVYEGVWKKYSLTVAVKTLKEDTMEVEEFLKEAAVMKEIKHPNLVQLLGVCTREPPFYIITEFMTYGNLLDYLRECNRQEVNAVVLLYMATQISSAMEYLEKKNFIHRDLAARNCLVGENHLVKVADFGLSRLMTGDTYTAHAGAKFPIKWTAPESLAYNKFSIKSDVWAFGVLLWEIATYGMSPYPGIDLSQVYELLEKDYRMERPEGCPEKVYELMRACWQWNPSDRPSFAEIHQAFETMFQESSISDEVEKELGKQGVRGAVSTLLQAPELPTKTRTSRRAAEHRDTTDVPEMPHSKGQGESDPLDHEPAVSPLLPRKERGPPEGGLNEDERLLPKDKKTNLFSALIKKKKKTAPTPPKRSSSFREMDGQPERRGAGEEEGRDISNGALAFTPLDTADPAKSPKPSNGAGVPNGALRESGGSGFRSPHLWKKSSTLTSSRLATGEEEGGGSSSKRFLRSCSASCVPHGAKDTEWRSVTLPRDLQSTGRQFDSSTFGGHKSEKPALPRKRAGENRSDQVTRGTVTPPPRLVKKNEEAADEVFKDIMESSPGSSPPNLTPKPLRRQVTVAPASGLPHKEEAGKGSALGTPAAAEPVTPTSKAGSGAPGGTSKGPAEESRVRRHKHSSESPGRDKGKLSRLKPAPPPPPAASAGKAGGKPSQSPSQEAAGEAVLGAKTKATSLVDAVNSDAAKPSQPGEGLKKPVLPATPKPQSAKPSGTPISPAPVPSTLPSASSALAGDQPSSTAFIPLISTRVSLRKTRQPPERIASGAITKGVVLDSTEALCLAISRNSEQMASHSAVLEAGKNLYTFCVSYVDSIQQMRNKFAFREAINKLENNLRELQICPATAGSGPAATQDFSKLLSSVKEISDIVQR

In the case of `O=C(CCCCCCNC(=O)c1cnc(N(c2ccccc2)c2ccccc2)nc1)NO` [ACY1215], the “shift in melting temperature (apparent Tagg) compared to the controls” value on HDAC1-Nluc is “significant shift in melting temperature (apparent Tagg)”.

As for `Cn1c(NC[C@@H](N)Cc2ccccc2)nc(-c2ccncc2)c(-c2ccc3ccccc3c2)c1=O` [AMG548], the entries for the “shift in apparent Tagg compared to DMSO controls” value (from here on “shift in apparent Tagg”) on CDK2-Nluc and on Nluc-ABL1 were “did not result in a significant shift in apparent Tagg” and “did not”, respectively. In data set [1], `CCCCCCN(CCCCCC)c1ccc(/C=C/c2cccc[n+]2CCCS(=O)(=O)[O-])cc1` [CS0020] displayed an Optical Property (in DMSO) Emission of 468 nm and an Optical Property (in DMSO) Excitation of 602 nm. With `CCCCCCN(CCCCCC)c1ccc(/C=C/C=C/c2cc[n+](CCCS(=O)(=O)[O-])cc2)cc1` [CS0024], in data set [1], the Optical Property (in DMSO) Emission turned out to be 516 nm and the Optical Property (in DMSO) Excitation was determined as 702 nm. The corresponding values for `CCCCCCN(CCCCCC)c1ccc(/C=C/c2cc[n+](CCCS(=O)(=O)[O-])c3ccccc23)cc1` [CS0028] are 560 nm and 680 nm.

Consider `CCCCCCN(CCCCCC)c1ccc(/C=C/c2cc[n+](CCCC(=O)O)cc2)cc1.[Br-]` [CS0036, (E)-1-(3-Carboxypropyl)-4-(4-(dihexylamino)styryl)pyridin-1-ium chloride], for which, in data set [1], the Optical Property (in DMSO) Emission was 480 nm and the Optical Property (in DMSO) Excitation is 624 nm. In the case of `CCCCCCN(CCCCCC)c1ccc(/C=C/c2cc[n+](CCCS(=O)(=O)[O-])cc2)c2ccccc12` [CS0038], in data set [1], the Optical Property (in DMSO) Emission stood at 462 nm and the Optical Property (in DMSO) Excitation was found to be 654 nm. In the case of `CCCCCCN(CCCCCC)c1ccc(/C=C/c2cc[n+](CCCC(=O)NCCCS(=O)(=O)[O-])cc2)cc1` [CS0043], in data set [1], the Optical Property (in DMSO) Emission was 468 nm and the Optical Property (in DMSO) Excitation amounted to 620 nm. On to `CCCCCCN(CCCCCC)c1ccc(/C=C/c2cc[n+](CCCC(=O)NCCOCCOCCOCCC(=O)O)cc2)cc1.[Br-]` [CS0045, (E)-1-(1-Carboxy-13-oxo-3,6,9-trioxa-12-azahexadecan-16-yl)-4-(4-(dihexylamino)styryl)pyridin-1-ium chloride], for which, in data set [1], the Optical Property (in DMSO) Emission was found to be 480 nm and the Optical Property (in DMSO) Excitation worked out at 622 nm. On to `CCCCCCN(CCCCCC)c1ccc(/C=C/c2cc[n+](CCCC(=O)NCCOCCOCCOCCC(=O)NCCCS(=O)(=O)[O-])cc2)cc1` [CS0048, (E)-21-(4-(4-(Dihexylamino)styryl)pyridin-1-ium-1-yl)-5,18-dioxo-8,11,14-trioxa-4,17-diazahenicos-ane-1-sulfonate], for which, in data set [1], the Optical Property (in DMSO) Emission stood at 478 nm and the Optical Property (in DMSO) Excitation worked out at 620 nm. Take `CCCCCCN(CCCCCC)c1ccc(/C=C/C2=[N+](C)c3ccccc3C2(C)C)cc1.[I-]` [CS0067]: in data set [1], the Optical Property (in DMSO) Emission came to 550 nm and the Optical Property (in DMSO) Excitation was 604 nm. Regarding `CCCCCCN(CCCCCC)c1cccc2c(/C=C/c3cc[n+](CCCS(=O)(=O)[O-])cc3)cccc12` [CS0071], the “Optical Property (in DMSO) Emission” value in data set [1] was “not fluorescent”. As for `CCCCCCN(CCCCCC)c1ccc(/C=C/c2ccc3c(ccc[n+]3CCCS(=O)(=O)[O-])c2)cc1` [CS0072], in data set [1], the “Optical Property (in DMSO) Emission” value is given as “not fluorescent”. In data set [1], `CCCCCCN(CCCCCC)c1ccc(/C=C/c2cc[n+](CCCC(=O)N(CCCS(=O)(=O)[O-])CCCS(=O)(=O)O)cc2)cc1` [CS0073, (E)-3-(4-(4-(4-(Dihexylamino)styryl)pyridin-1-ium-1-yl)-N-(3-sulfopropyl)butanamido)propane-1-sulfonate] returned an Optical Property (in DMSO) Emission of 480 nm and an Optical Property (in DMSO) Excitation of 620 nm. `CCCCCCN(CCCCCC)c1ccc(/C=C/c2ccc3ccccc3[n+]2C)cc1.[I-]` [CS0085]: in data set [1], the Optical Property (in DMSO) Emission is 532 nm and the Optical Property (in DMSO) Excitation was 640 nm.

Consider `C[n+]1c(/C=C/c2ccc3ccccc3c2)ccc2ccccc21.[I-]` [CS0087], for which, in data set [1], the Optical Property (in DMSO) Emission came to 400 nm and the Optical Property (in DMSO) Excitation turned out to be 550 nm.

Take `CCCCCCN(CCCCCC)c1ccc(/C=C/c2cc[n+](C34CC5CC(CC(C5)C3)C4)cc2)cc1.[Br-]` [CS0096]: in data set [1], the Optical Property (in DMSO) Emission amounted to 480 nm and the Optical Property (in DMSO) Excitation is 618 nm. Turning to `CCCCCCN(CCCCCC)c1ccc(/C=C/c2cc[n+](CCCC(=O)NCCOCCOCCOCCC(=O)OC(C)(C)C)cc2)cc1.[Br-]` [CS0100, (E)-4-(4-(Dihexylamino)styryl)-1-(2,2-dimethyl-4,17-dioxo-3,7,10,13-tetraoxa-16-azaicosan-20-yl)pyridin-1-ium chloride], in data set [1], the Optical Property (in DMSO) Emission was determined as 480 nm and the Optical Property (in DMSO) Excitation amounted to 622 nm. Turning to `CCCCCCN(CCCCCC)c1ccc(/C=C/c2cc[n+](CCCC(=O)OCC)cc2)cc1.[Br-]` [CS0101, (E)-4-(4-(Dihexylamino)styryl)-1-(4-ethoxy-4-oxobutyl)pyridin-1-ium bromide], in data set [1], the Optical Property (in DMSO) Emission was determined as 480 nm and the Optical Property (in DMSO) Excitation was 624 nm. In data set [1], `CCCCCCN(CCCCCC)c1ccc(/C=C/c2cc[n+](CC)cc2)cc1.[OH-]` [CS0112] came in with an Optical Property (in DMSO) Emission of 480 nm and an Optical Property (in DMSO) Excitation of 620 nm.

In data set [1], `CCCCCCN(CCCCCC)c1ccc(/C=C/c2ccncc2)cc1` [CS0117, (E)-N,N-Dihexyl-4-(2-(pyridin-4-yl)vinyl)aniline] displayed an Optical Property (in DMSO) Emission of 468 nm and an Optical Property (in DMSO) Excitation of 620 nm.

In data set [1], `CCCCCCN(CCCCCC)c1ccc(/C=C/c2cc[n+](CCC(F)(F)C(F)(F)C(F)(F)C(F)(F)C(F)(F)C(F)(F)F)cc2)cc1.[I-]` [CS0121, (E)-4-(4-(dihexylamino)styryl)-1-(3,3,4,4,5,5,6,6,7,7,8,8,8-tridecafluorooctyl)pyridin-1-iumiodide] displayed an Optical Property (in DMSO) Emission of 480 nm and an Optical Property (in DMSO) Excitation of 620 nm. In data set [1], `CCCCCCN(CCCCCC)c1ccc(/C=C/C=C/c2cc[n+](CCCC(=O)NCCOCCOCCOCCC(=O)OC(C)(C)C)cc2)cc1` [CS0147] showed an Optical Property (in DMSO) Emission of 516 nm and an Optical Property (in DMSO) Excitation of 702 nm. In data set [1], `CCCCCCN(CCCCCC)c1ccc(/C=C/C=C/c2cc[n+](CCC[N+](C)(C)C)cc2)cc1` [CS0155] yielded an Optical Property (in DMSO) Emission of 516 nm and an Optical Property (in DMSO) Excitation of 702 nm. For `Nc1ccccc1NC(=O)c1ccc(CNc2nccc(-c3cccnc3)n2)cc1` [Mocetinostat], the “shift in melting temperature (apparent Tagg) compared to the controls” value on HDAC1-Nluc was “significant shift in melting temperature (apparent Tagg)”. Take `Cc1cn(-c2cc(NC(=O)c3ccc(C)c(Nc4nccc(-c5cccnc5)n4)c3)cc(C(F)(F)F)c2)cn1` [Nilotinib]: the “shift in apparent Tagg” value at CDK2-Nluc is reported as “did not result in a significant shift in apparent Tagg”.

As for `C[S+]([O-])c1ccc(-c2nc(-c3ccncc3)c(-c3ccc(F)cc3)[nH]2)cc1` (stereo not shown) [SB203580], the entries for the “shift in apparent Tagg” value on CDK2-Nluc and at Nluc-ABL1 were “did not result in a significant shift in apparent Tagg” and “did not”, respectively.
